Earlier results, collected in patent publication US20220304972A1, “COMBINATION THERAPY AND BIOMARKER INDICATING EFFICACY THEREOF” (Sumitomo Dainippon Pharma Co., Ltd., priority 2019, published 2022).
Where two headings read alike, the source gives them in different places.

System: CRC patients

nivolumab: anti-PD-1 antibody, binds to PD-1
ORR (CRC, N=14 (1/14), Brahmer 2010): 7 | ORR (Refractory CRC, N=19, Topialan et al. 2012, NCT00730639): 0

atezolizumab: anti-PD-L1 antibody, binds to PD-L1
ORR (MSS CRC, N=90 (2/90), Bendell et al. 2018, NCT02788279): 2.2%

pembrolizumab: anti-PD-1 antibody, binds to PD-1
ORR (MSS CRC, N=18, Le et al. 2015, NCT01876511): 0 | ORR (PD-1 positive MSS CRC, N=22, O' Neil et al. 2017, NCT02054806): 0
